# Test results from patent US5236934A, “1,2,3,4-tetrahydroisoquinolines useful in the treatment of CNS disorders” (E. I. Du Pont de Nemours and Company, priority 1992, dated 1993).
# Values joined by “and” are separate entries in the source; they are usually repeats but may differ in a detail not shown here. Equal values may be shown once. Read-outs that look alike come from different tables or passages of the source.
# T1: AII receptors of rat adrenal medulla (Rattus norvegicus, UniProt P35351)
# T1 sequence (P35351 1-363): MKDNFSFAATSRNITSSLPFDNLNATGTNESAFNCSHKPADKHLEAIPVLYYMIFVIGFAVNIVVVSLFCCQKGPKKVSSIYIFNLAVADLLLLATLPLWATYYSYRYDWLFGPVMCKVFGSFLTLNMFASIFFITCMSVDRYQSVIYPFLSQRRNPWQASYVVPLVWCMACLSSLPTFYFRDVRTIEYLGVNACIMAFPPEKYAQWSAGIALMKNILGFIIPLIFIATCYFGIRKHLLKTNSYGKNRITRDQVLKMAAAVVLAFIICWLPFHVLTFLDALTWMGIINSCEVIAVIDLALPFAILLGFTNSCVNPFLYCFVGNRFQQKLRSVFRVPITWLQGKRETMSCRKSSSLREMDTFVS
# T2: AT2 receptor (Rattus norvegicus, UniProt P35351)
# T2 construct: AT1 and AT2 receptor subtypes in rat adrenal cortex microsomes; from tissue; host or cells: rat adrenal cortical microsomes (13,000-102,000 g)
# T2 sequence (P35351 1-363): T1 sequence (P35351 1-363)
# B1: renin: an enzyme involved in endogenous AII biosynthesis (protein, UniProt P00797 67-406, looked up)
# Renin: LTLGNTTSSVILTNYMDTQYYGEIGIGTPPQTFKVVFDTGSSNVWVPSSKCSRLYTACVYHKLFDASDSSSYKHNGTELTLRYSTGTVSGFLSQDIITVGGITVTQMFGEVTEMPALPFMLAEFDGVVGMGFIEQAIGRVTPIFDNIISQGVLKEDVFSFYYNRDSENSQSLGGQIVLGGSDPQHYEGNFHYINLIKTGVWQIQMKGVSVGSSTLLCEDGCLALVDTGASYISGSTSSIEKLMEALGAKKRLFDYVVKCNEGPTLPDISFHLGGKEYTLTSADYVFQESYSSKKLCTLAIHAMDIPPPTGPTWALGATFIRKFYTEFDRRNNRIGFALAR
# What was measured:
# [1] = injected into the dorsal neostriatum; cited from earlier work
# [2] = tested on: AII receptor subtypes of rat adrenal cortical membranes; assay: [125I]AII binding to rat adrenal cortical membranes with and without DTT pretreatment
# From the text: 102:685-696, except the above binding assay conditions were used.
# [3] = tested on: AII receptors of rat adrenal cortex; assay type: binding; conditions: autoradiography; DuP 753 or EXP-655 at 10^-6 M
# Description: (§1) Fresh tissue was frozen on powdered dry ice and stored at -70° C. until used. Sections were cut at 15 microns and thaw mounted onto gelatin subbed slides. […] Slides were placed under X-ray film (Kodak XAR-5) and exposed for 11/2 days before processing the film to produce the film autoradiograms. The slides were then fixed with paraformaldehyde vapor at 80° C. for two hours, dried under air, delipidated, and dipped in emulsion (Kodak NTB-2). The coated slides were exposed for 4-5 weeks, developed with Kodak D-19 and counter-stained with hemotoxylin-eosin to view the histology.
# [4] = tested on: potassium stimulated release of [3H]ACh; conditions: in vitro; cited from earlier work
# [5] = target: T1, AII receptors of rat adrenal medulla; conditions: autoradiography; DuP 753 or EXP-655 at 10^-6 M
# Description: as §1
# [6] = target: AT1 receptor; assay: [125I]AII binding to AT1 receptor, rat adrenal cortical microsomes, in the presence of 10^-5 M EXP-655 (DuP 753-sensitive sites)
# Description: (§2) Procedures for the preparation of adrenal cortical microsomes and details of the binding assays are described in Chiu et al. (1989) J. Pharmacol. Exp. Ther. 250:867-874. The same procedures and conditions were used for adrenal medullary microsomes. […] After 60 min. of incubation, the reaction was terminated by addition of cold assay buffer. The bound and free radioactivity were rapidly separated through glass-fiber filters, and the trapped radioactivity was determined by gamma counting.
# [7] = tested on: AII receptors of rat adrenal cortex; assay: Total specific [125I]AII binding to rat adrenal cortical microsomes
# Description: After 60 min. of incubation, the reaction was terminated by addition of cold assay buffer. The bound and free radioactivity were rapidly separated through glass-fiber filters, and the trapped radioactivity was determined by gamma counting.
# [8] = tested on: AII receptors of rat adrenal medulla; assay: [125I]AII binding to rat adrenal medullary microsomes; conditions: rat adrenal medullary microsomes; for binding resistant to displacement: of total binding, 60 min
# Description: as §2
# [9] = tested on: rabbit aorta; assay: AII-induced rabbit aortic contractions; conditions: at concentrations of up to 10^-5 M
# [10] = Blood pressure lowering in hypertensive animals (renal artery-ligated hypertensive rats); assay type: in vivo, rat; conditions: doses up to 30 mg/kg, IV
# [11] = tested on: AII binding sites in the brain; assay: Distribution of AII binding sites in brain slices
# Description: as §1
# [12] = tested on: AII receptors of rat adrenal cortex; conditions: reported in U.S. Pat. No. 4,812,462; cited from earlier work
# [13] = reported in U.S. Pat. No. 4,812,462; cited from earlier work
# [14] = tested on: pial arterial dilation; conditions: rat cranial window, cited from earlier work
# [15] = tested on: chick chorioallantoic membrane; conditions: cited from earlier work
# [16] = tested on: potassium current in cultured neurones; conditions: cited from earlier work
# [17] = tested on: collagenase activity in cultured cardiac fibroblasts; conditions: cited from earlier work
# [18] = target: T1, AII receptors of rat adrenal medulla; assay: [125I]AII binding to rat adrenal medullary microsomes; set-up: from tissue; host or cells: rat adrenal medullary microsomes; conditions: rat adrenal medulla
# Description: as §2
# [19] = in vivo; cited from earlier work
# [20] = target: T2, AT2 receptor; assay: [125I]AII binding to AT2 receptor, rat adrenal cortical microsomes, in the presence of 10^-5 M DuP 753 (DuP […]-insensitive sites)
# Description: as §2
# [21] = cited from earlier work; for effect on avoidance learning: IVT
# [22] = cited from earlier work
# [23] = tested on: AII binding sites of rat aortic smooth muscle cells; assay: AII receptor binding in rat aortic smooth muscle cells
# [24] = tested on: trypsin activated collagenase in rat heart myocytes; conditions: cited from earlier work
# [25] = rat adrenal cortex microsomes, in the presence of 10^-5 M EXP-655, read-out: IC50 AT1
molecule,measurement,setting,value
NC(=O)[C@@H]1CCCN1C(=O)[C@H](Cc1cnc[nH]1)NC(=O)[C@@H]1CCC(=O)N1 [thyrotropin releasing hormone],effect on retention of PA response,[1],no effect
"AII: octapeptide hormone which is a component of the renin-angiotensin system (DRVYIHPF; Angiotensin-2; UniProt P01019 25-32, looked up)",enhancement of inhibitory potency by DTT,[2]; 5 mM DTT,2.5 fold
same,IC50,"[2]; read-out: IC50 in the absence of DTT, without DTT",1 nM
same,labeling over the adrenal cortex,[3],potently inhibited the labeling
same,effect on retention of PA response,[1],disruption in retention of a PA response
same,effect on basal levels of ACh release,[4],without effects on basal levels
same,effect on potassium-stimulated release of ACh,[4],reduced potassium-stimulated release of ACh
same,labeling of the adrenal medulla,[5],potently inhibited the labeling
Cc1cc(Cn2cnc3c2CC(C(=O)O)N(C(=O)C(c2ccccc2)c2ccccc2)C3)ccc1N (stereo not shown) [EXP-655],IC50,[6]; [25],~300000 nM and 300000 nM
same,IC50,"[6]; rat adrenal cortex, read-out: inhibitory constant IC50, AT1 site",~300000 nM
same,inhibition of the total specific AII binding,"[7]; at 3×10^-5 M, rat adrenal cortical microsomes",20%
same,inhibition of total AII binding,[7]; rat adrenal cortex,20%
same,binding resistant to displacement,[8],10%
same,antagonizing AII-induced rabbit aortic contractions,[9],inactive
same,lowering blood pressure,[10],inactive
same,labeling over the adrenal cortex,[3],no apparent effect
same,sensitivity of AII binding sites in the brain,[11],"the majority of AII binding sites in the brain are DTT-insensitive, EXP-655-sensitive"
same,affinity for AII receptors as reported,[12],high affinity for AII receptors
same,antihypertensive activity as reported,[13],antihypertensive agent
same,block of pial arterial/arteriolar dilation,[14]; listed as EXP 655,shown to block
same,block of angiotensin II-induced increase in microvascular density / angiogenesis,[15],shown to block
same,block of effect to increase potassium current,[16],shown to block
same,block of effect to inhibit collagenase activity,[17],shown to block
same,labeling of the adrenal medulla,[5],almost totally eliminated
same,inhibition of AII binding,[18],90%
"AI: AI (compared with AII) (DRVYIHPFHL; Angiotensin-1; UniProt P01019 25-34, looked up)",effect on potassium-stimulated release of ACh,[4],not AI
NCCCC[C@H](OP(=O)(O)CCCCc1ccccc1)C(=O)N1CCC[C@H]1C(=O)O [SQ 29852],memory of previously learned tasks,[19],protective effects on memory of previously learned tasks
"O[C@H](CS)[C@H](O)CS (racemic) [DTT, dithiothreitol]",sensitivity of AT1 receptor to DTT,[6],particularly sensitive to inactivation by DTT
same,sensitivity of AT2 receptor to DTT,[20],resistant to DTT inactivation
C[C@H](CS)C(=O)N1CCC[C@H]1C(=O)O [captopril],effect on avoidance learning,[21],prevented the renin-induced avoidance disruption
same,scopolamine-induced disruption of performance,[22]; daily treatment,prevented
same,"light/dark habituation performance, rate of acquisition",[22]; subchronic treatment,increased the rate of acquisition
lysine-8-vasopressin,effect on retention of PA response,[1],no effect
"[1-sarcosine, 8-threonine]angiotensin II",effect on potassium-stimulated release of ACh,[4],antagonized
CGP42112A,block of angiotensin II-induced increase in microvascular density / angiogenesis,[15],block the increase in microvascular density
CCCCc1nc(Cl)c(CO)n1Cc1ccc(-c2ccccc2-c2nn[nH]n2)cc1 [DuP 753],plateau of constant binding,"[7]; over a two-log concentration increase, 60 min",about 28 % of the total receptor-bound AII
same,inhibition of total AII binding,[7]; rat adrenal cortex,80%
same,IC50,"[7]; rat adrenal cortex, read-out: IC50 on the sensitive sites",~5 nM
same,IC50,"[7]; rat adrenal cortical microsomes, DuP 753-sensitive site, read-out: approximated IC50, first site of biphasic displacement",~5 nM
same,inhibition of binding,[8]; below 1×10^-6 M,10%
same,binding resistant to displacement,[8],About 90%
same,effect of DTT on inhibition of AII binding,[2]; 5 mM DTT,essentially abolished in the presence of DTT
same,labeling over the adrenal cortex,[3],significantly reduced
same,"sensitivity of AII binding sites, rat aortic smooth muscle cells",[23],primarily the DuP 753-sensitive AII binding sites (AT1)
same,labeling of the adrenal medulla,[5],not appreciably affected
same,inhibition of AII binding,[18],essentially inactive as an antagonist
Cc1cc(Cn2cnc3c2CC(C(=O)O)N(C(=O)C(c2ccccc2)c2ccccc2)C3)ccc1N (stereo not shown) [PD123177],block of pial arterial/arteriolar dilation,[14],block the pial arterial dilation
same,block of angiotensin II induced inhibition of trypsin activated collagenase,[24],block the angiotensin II induced inhibition of trypsin activated collagenase
COc1ccc(-c2cccc3c2CC(C(=O)O)N(C(=O)C(c2ccccc2)c2ccccc2)C3)cc1C (stereo not shown) [Example 25],IC50,[6]; [25],> 10000 nM
same,IC50,[20],60 nM
CNCC(=O)N[C@@H](CCCN=C(N)N)C(=O)N[C@H](C(=O)N[C@@H](Cc1ccc(O)cc1)C(=O)N[C@H](C(=O)N[C@@H](Cc1cnc[nH]1)C(=O)N1CCC[C@H]1C(=O)N[C@@H](C)C(=O)O)C(C)C)C(C)C [Saralasin],preference for one AII receptor subtype relative to the other,[6]; AT1 vs AT2,no preference
same,concentration giving complete displacement of AII,[7]; rat adrenal cortical microsomes,100 nM
same,IC50,"[7]; rat adrenal cortical microsomes, read-out: IC50, monophasic",1 nM
same,effect of DTT on inhibition of AII binding,[2]; 5 mM DTT,not significantly altered by DTT
"O=C(O)C1Cc2cc(Oc3ccccc3)ccc2CN1C(=O)C(c1ccccc1)c1ccccc1 (stereo not shown) [Example 32, 2-Diphenylacetyl-6-phenoxy-1,2,3,4-tetrahydroisoquinoline-3-carboxylic acid]",IC50,[6]; [25],> 10000 nM
same,IC50,[20],70 nM
B1,effect on avoidance learning,[21],disruption of avoidance learning
same,AII level in CSF after renin,"[21]; increased from 40, renin IVT",about 5000 fmol per mL
